This note sets out measurements from patent US7645882B2, “Inhibitor of protein modification products formation” (priority 2003, dated 2010).

In one assay the test system is SHR/NDmcr-cp rat. As to the kind of experiment: Renal protecting effect in SHR/NDmcr-cp rat. The format is in vivo. Particulars: 33 weeks aged, 20 weeks administration; TM-2002 50 mg/kg in diet, olmesartane 3 mg/kg oral. The source says:
Renal protecting effect was observed using SHR/NDmcr-cp (Disease Model Cooperative Research Association) rat, which had been known their high blood pressure, hyperglycemia, hyperlipemia, obesity and hyperinsulinemia and renal function disorder while aging.
SHR/NDmcr-cp rat and Wistar Kyoto rat (Disease Model Cooperative Research Association) of 9 weeks aged were conformed for 3 weeks and measured their body weight and blood collection before administration. One group contain five rats (body weight 440 g±32 g). After division, excipient (negative control), positive control compound and test compound were administered 20 weeks. Carboxymethylcellulose (carboxymethyl cellulose Na/ Wako) solution as excipient and olmesartane, which is one of the angiotensin II receptor antagonist and has renal protective effect, as positive control compound were used to examine the effect of TM-2002 (test compound). The dosage of olmesartane was 3 mg per 1 kg of body weight and that of TM-2002 was 50 mg per 1 kg of body weight. Olmesartane was prepared by suspending or solving the designed amount in 1.0 ml of 0.5% carboxymethylcellulose solution or purified water, and TM-2002 was prepared by mixing the designed amount in 30 g of diet (for one day). Since the increase of body weight of test animals was remarkable, the amount of positive control compound and test compound was modified depending on the result of body weight measuring (every week). […] While administration period, body weight was measured every week, and blood collection, urine collection and blood pressure measuring were done every 2 weeks before 4 weeks aged and every 4 weeks after 5 weeks aged. Blood collection was carried out after warming to 38° C. by warming plate from caudal vein for 800 μl (heparin treatment: the amount of heparin was determined by ratio 15 μl to 1 ml of blood). […] The volume of daily urine was measured when urine was collected. The blood pressure was determined with by the tail-cuff method blood pressure measure (Softron). […]

A further assay deals with ORP150. As to the kind of experiment: ER stress inducing molecule expression in RIN-5F cells, western blot, ORP150. The format is cell-based, rat. To be noted: TM-2002 200 μM, 50 μM and tunicamycin co-added. The procedure:
Rat pancreatic β cell line (RIN-5F) was seeded in 6 well culture plate to 1.0×10^5 cells/well, and after 24 hours, TM-2002 in DMSO (200 mM, 50 mM) were added to be final concentration 200 μM, 50 μM. After another 1 hour, 0.2 μl of tunicamycin (Sigma) in methanol(1 mg/ml) was added. After culturing 8 hours, the cells were washed 2 ml of PBS(+) twice, and the cells were dissolved in 100 μl of lysate (50 mM Tris-HCl (pH 7.5), 150 mM NaCl, 100 mM NaF, 100 mM sodium phosphate (pH 7.4), 2 mM Na3VO4, 0.1% protease inhibitor cocktail (Sigma), 1% Triton X-100). To remove the insoluble fraction of this lysate, centrifuged at 12,000×g for 10 minutes and obtained the supernatant to give cell extract. The extract was quantified its protein concentration using DC protein assay kit (Bio Rad), and each samples (1 μg) was electrophoresed by SDS-PAGE and transferred to PVDF membrane. The membrane was blocked with 5% skimmed milk/0.1% Tween20-TBS for 1 hour at room temperature, and reacted with anti-ORP150 antibody in 5% skimmed milk/0.1% Tween20-TBS (2000 folds: specific antibody), anti-GRP78 antibody (Santa Cruz) in 5% skimmed milk/0.1% Tween20-TBS (100 folds) and anti-actin antibody (Sigma) in 5% skimmed milk/0.1% Tween20-TBS (200 folds) for 2 hours. […] The detected signal was analyzed by Lane analyzer (ATTO) and calculated the signal strength. […]
Background: A western blot detects proteins with antibodies after separation by electrophoresis.

The subject of a further assay is pentosidine. The assay is described as follows: Pentosidine production inhibiting effect with BSA and arabinose. To be noted: BSA and arabinose instead of plasma. The assay is classed as biochemical. The method in brief: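 Heparinized hemodialysis-patient plasma (replaced here by BSA plus arabinose) incubated with compound at 0.8, 2.0, 5.0 mM final, 37 °C, one week. Protein TCA-precipitated, hydrolysed in 6N HCl at 110 °C for 16 h; free pentosidine quantified by reversed-phase HPLC with fluorescence (ex/em 335/385 nm) against synthetic standard.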

Consider `Cc1ncc2c(c1O)C(c1c(C)nn(-c3ccccc3)c1O)OC2` (centres unmarked) [compound 68, 1-(5-hydroxy-3-methyl-1-phenyl-1H-pyrazol-4-yl)-6-methyl-1,3-dihydro-furo[3,4-c]pyridin-7-ol], for which, in the assay with SHR/NDmcr-cp rat, the blood pressure entry is “without blood pressure lowering”, the “renal function / renal protective effect” value is recorded as “excellent renal protective effect” and the urinary protein result is listed as “urinary protein is suppressed remarkably”. The “hyperexpression of ORP150” value with ORP150 is listed as “suppressed”. The “Pentosidine production rate in 5 mM of medicament (%)” value with pentosidine is 2.82%.
